Test results published in patent US20140147848A1 (UNIVERSITY OF TSUKUBA, priority 2012, published 2014).
Like-named read-outs stand apart in the source and are kept apart here.

How the values were obtained:
[1] = tested on: Caco-2 cells
Experimental: Caspase assay was performed using Immunochemistry Technologies, LLC's Apoptosis detection kit, according to the manufacturer's protocol. […] After treatment, approximately 290-300 μl of each cell suspension was transferred to sterile tubes (e.g., cell density should be around 1×10^7 cells/ml). 10 μl of 30×FLICA solution was added directly to the 290-300 μl cell suspensions, and then incubate cells for 1 hour at 37° C. under 5% CO2, protecting the tubes from light. 2 ml of 1× wash buffer was added to each tube. The tubes were then mix and centrifuge cells at <400×g for 5 minutes at room temperature (RT). The supernatant was carefully remove and discard. The cell pellet was resuspended in 1 ml 1× wash buffer, and the cells were centrifuged again at <400×g for 5 minutes at RT. The supernatant was carefully removed and discarded. The cells were resuspended in 400 μl PBS, about 100 μl of the cell suspensions was placed into each of 2 wells of a black microplate. Finally the fluorescence intensity of sulforhodamine (excitation 550 nm, emission 595 nm) was measured and used a fluorescence plate reader.

[2] = tested on: Caco-2 cells; remark: listed apart in the source
Experimental: Cells were then harvested by centrifugation, where the supernatant was discarded and the pellet was resuspended in 1 ml of PBS. Genomic DNA was then purified using commercial DNA purification kit from QIAGEN. 1 μg of DNA sample was added to 2 μl of loading buffer (Wako) and then loaded onto a 2% agarose gel. The electrophoresis was carried out at a constant voltage of 100 V for 20 min and the DNA was finally observed under ultraviolet illumination after staining with ethidium bromide.

[3] = tested on: Caco-2 cells; conditions: 5 ppm and 60 ppm LAS, 24 hours, vs control
Experimental: Total protein was extracted from all three populations 24 hours after treatment, as described in detail below. […] The labeled spots (i.e., the differentially expressed proteins) were chosen based on the results of software analysis designed to assess the respective fold changes of protein levels in the each of the respective spots.
Caco-2 cells were seeded at 2×10^5 cells/ml density in Petri dishes. […] The cells were rinsed three times with ice-cold PBS, scraped gently, and collected in PBS. […] After desalting the protein was extracted using Amicon Ultra centrifugal filters (Ultracel-10K membrane) from Millipore, and the final protein amount was determined using the 2-D Quant kit (GE Healthcare).
The first dimension electrophoresis was carried out on an Ettan IPGphor II (GE Healthcare) apparatus. […] The destained gels were then scanned at 300 dpi resolution, and the images were analyzed with Image Master™ 2D software (ver. 4.9: GE Healthcare). For statistical quantification, three experiments were performed for each experiment. […] Spots were expressed as percentages (% vol) of relative volumes by integrating the value of each pixel in the spot area as described previously in our study (see, e.g., Han et al. 2010). […]

[4] = tested on: Caco-2 cells; conditions: LAS 60 ppm
Experimental: (§1) Note that in all figures asterisks represent the significance of the difference compared to the control, e.g., * for p value<0.05 and ** for p value<0.01.
The determination of intracellular ROS was performed using the OxiSelect™ Intracellular ROS Assay Kit, from CELL BIOLABS, INC., according to the manufacturer's protocol. Briefly, Caco-2 cells were cultured in a 96-well plate for 24 h, and then pre-incubated for 60 min with DCFH-DA. […] After a different incubation times of, for example, 1 h, 3 h, 6 h, and 12 h, the fluorescence was read using a plate reader at 480 nm/530 nm excitation/emission wavelengths. The ROS content was determined by comparison with the predetermined DCF standard curve.

[5] = tested on: Tropomyosin alpha-3 chain (TPM3); assay: Real-time PCR, TPM3 expression in Caco-2 cells; conditions: LAS 60 ppm
Experimental: (§2) Caco-2 cells treatment and RNA extraction: Caco-2 cells were seeded at 2×10^5 cells/ml density in Petri dishes. […] Total RNA was then purified using the ISOGEN kit (Nippon GeneCo Ltd., Japan) following the manufacturer's instructions.
(§3) cDNA synthesis: Total RNA was quantified using the Thermo scientific Nanodrop 2000 (USA), and reverse transcription reactions were performed using the Superscript III reverse transcriptase kit (Invitrogen, Carlsbad, Calif.) using 1 μg of total RNA. Briefly, RNA was denatured by incubation at 65° C. for 5 min, with 1 μL oligo (dT) primers, and chilled at 4° C. SuperScript III reverse transcriptase was then added and the reaction mix was incubated at 42° C. for 60 min, and then for 10 min at 70° C.
Real-time PCR: The expression of TPM3, THIO, CALR and HSP7C, respectively, in treated Caco-2 cells was determined by real-time PCR using glyceraldehyde 3-phosphate dehydrogenase (GAPDH) as an internal positive control. […] TaqMan real-time PCR amplification reactions were performed in a 20 μl reaction mixtures containing: 10 μl of TaqMan Universal PCR Master Mix UNG (2×), 9 μl of template cDNA (100 ng μl^−1) and 1 μl of the corresponding primer/probe mix, using an AB 7500 fast real-time system (Applied Biosystems). For the amplification, the following cycling conditions were applied: 2 min at 50° C., 10 min at 95° C., and 40 cycles of 15 s at 95° C./1 min at 60° C.

[6] = tested on: Caco-2 monolayer
Experimental: TEER measurements were obtained by growing the cells at a density of 2·10^5 cells/cm^2 in 6.5-mm diameter collagen coated Transwell (0.4 μm PTFE membrane) on 24-well plates. The medium was changed every 2 days, and the cells were cultured for 12 days to establish monolayer integrity. TEER measurements were performed according to the method of Hashimoto et al. (1997). After a 12-day culture period, the cell monolayer was rinsed with PBS.

[7] = tested on: Caco-2 cells; remark: listed apart in the source
[8] = tested on: Calreticulin (CALR); assay: Real-time PCR, CALR expression in Caco-2 cells; conditions: LAS 60 ppm
Experimental: as §2, §3
Real-time PCR: The expression of TPM3, THIO, CALR and HSP7C, respectively, in treated Caco-2 cells was determined by real-time PCR using glyceraldehyde 3-phosphate dehydrogenase (GAPDH) as an internal positive control. Oligos for TPM3 (Hs01900726_g1), THIO (Hs01555212_g1), CALR (Hs00189032_m1), HSP7C (Hs03045200_g1) and GAPDH (Hs02758991_g1) were inventoried gene expression assays (see Table 5). TaqMan real-time PCR amplification reactions were performed in a 20 μl reaction mixtures containing: 10 μl of TaqMan Universal PCR Master Mix UNG (2×), 9 μl of template cDNA (100 ng μl^−1) and 1 μl of the corresponding primer/probe mix, using an AB 7500 fast real-time system (Applied Biosystems). For the amplification, the following cycling conditions were applied: 2 min at 50° C., 10 min at 95° C., and 40 cycles of 15 s at 95° C./1 min at 60° C.

[9] = tested on: Thioredoxin (THIO); conditions: LAS 60 ppm
Text: as §1

[10] = tested on: Caco-2 cells; remark: listed apart in the source
Experimental: Specifically, Caco-2 cells were treated with concentrations of 0, 1 ppm, 5 ppm, 50 ppm, 60 ppm, and 70 ppm and analyzed by an MTT assay at 24 h, 48 h, and 72 h post-treatment.
The human colon adenocarcinoma cell line Caco-2 was kindly provided by Dr. Makoto Shimizu of the University of Tokyo, Japan. Caco-2 cells were cultured in Dulbecco's modified Eagle's medium (DMEM; Sigma) supplemented with 10% fetal calf serum (FCS), 1% nonessential amino acids (NEAA) and 1% Penicillin/Streptomycin (5 mg/ml each), and incubated in a 95% air and 5% CO2 atmosphere at 37° C. The cells were sub-cultured at a split ratio of 1:3 every 2 days.
Cell viability was assessed using a conventional MTT reduction assay. […] At the respective time points, 10 μl of MTT stock solution (5 mg/ml) was added to the culture medium and incubated for 6 h at 37° C. The formazan was extracted with 100 μl 10% SDS (W/V), and the absorbance was measured with a microliter plate reader at 570 nm wavelength.

[11] = tested on: Heat shock cognate 71 kDa protein (HSP7C); conditions: LAS 60 ppm, 12 hours after exposure
Experimental: as §2, §3
Real-time PCR: The expression of TPM3, THIO, CALR and HSP7C, respectively, in treated Caco-2 cells was determined by real-time PCR using glyceraldehyde 3-phosphate dehydrogenase (GAPDH) as an internal positive control. […] TaqMan real-time PCR amplification reactions were performed in a 20 μl reaction mixtures containing: 10 μl of TaqMan Universal PCR Master Mix UNG (2×), 9 μl of template cDNA (100 ng μl^−1) and 1 μl of the corresponding primer/probe mix, using an AB 7500 fast real-time system (Applied Biosystems). […]

sodium dodecylbenzenesulfonate [LAS]
cell death pathway (caspase assay) [1]: non-apoptotic pathway
DNA fragmentation [2]: no DNA fragmentation was observed
change in protein expression, spots 1, 2, 4, 5, 7, 8, 9, 10, and 12 [3]: up-regulation
change in protein expression, spots 3, 6, 11, and 13 [3]: down-regulation
ROS production ([4]; 12 hours post-treatment): returned to baseline levels (or lower)
ROS production ([4]; within the first 6 hours after treatment): significant ROS production
TPM3 overexpression relative to the control ([5]; 3 hours): 1.2 fold
TPM3 overexpression relative to the control ([5]; 6 hours post-exposure): slightly below that of the control
TPM3 overexpression relative to the control ([5]; after 6 hours (time not given)): ~1.05 fold
relative electrical resistance (TEER) ([6]; 5, 10, 30, and 60 ppm LAS over time): decreased with increasing concentration of LAS
time to decrease in barrier function efficiency ([6]; higher concentrations of LAS): ≤ 30 min
intracellular calcium concentration ([7]; 3 and 6 hours post-treatment): decrease of the intracellular calcium concentration
intracellular calcium concentration ([7]; 12 hours, continuing until 24 hours post-treatment): excessive increase of the intracellular calcium concentration
CALR expression relative to control ([8]; 3 hours post-treatment): about 1.6 fold
CALR expression relative to control ([8]; 12 hours post-treatment): decreased to baseline levels
CALR expression relative to control ([8]; 24 hours after exposure): once again overexpressed
THIO overexpression relative to the control ([9]; 3 hours): 1.4 fold
THIO overexpression relative to the control ([9]; 6 hours): 1.4 fold
THIO overexpression relative to the control ([9]; 12 hours): about 1.3 fold
THIO overexpression relative to the control ([9]; 24 hours): about 1.1 fold
cytotoxic effect on Caco-2 cells (MTT) ([10]; 0-70 ppm LAS, 24 h, 48 h, 72 h post-treatment): strong cytotoxic effect
cytotoxic effect on Caco-2 cells (MTT) ([10]; LAS 5 ppm): no obvious cytotoxic effect
HSP7C expression relative to control [11]: significantly overexpressed
